Experimental data as given in the supplement of paper PMC4862054.
Values joined by “and” are separate entries in the source; they are usually repeats but may differ in a detail not shown here. Equal entries are not always repeated.

Columns and labels:
BT-474 [1] = experiment: normalised response (% of control), CellTiter-Glo; higher = more viable cells (100 = DMSO, 0 = benzethonium chloride kill control); settings: incubation time: 72 h
Outline: (§1)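 Normalised signals at single concentrations make up the values. They come from breast cancer cell lines seeded (20 µl suspension) into 384-well plates with compound at 5 concentrations in 10-fold steps over a compound-specific 10,000-fold range, incubated 72 h, and read for CellTox Green fluorescence then CellTiter-Glo luminescence. Each plate was normalised to 0.1 % DMSO (100) and a positive kill control (0).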

BT-549 [2] = experiment: as above; settings: incubation time: 72 h
Outline: as §1

CAL-51 [3] = experiment: as above; settings: incubation time: 72 h
Outline: as §1

HCC1937 [4] = experiment: as above; settings: incubation time: 72 h
Outline: as §1

MDA-MB-231 [5] = experiment: as above; settings: incubation time: 72 h
Outline: as §1

BT-474 [6] = experiment: normalised viability (% of control), CellTiter-Blue; higher = more viable cells (about 100 = DMSO control); settings: incubation time: 72 h
Outline: (§2)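 Seeded at 20 µl suspension per well onto compound-loaded 384-well plates, breast cancer cell lines were incubated 72 h. CellTiter-Blue fluorescence at 560/590 nm was then read, with each plate normalised to vehicle (100) and a positive kill control (0). Normalised viability is reported at a single listed concentration of the series.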

BT-549 [7] = experiment: as above; settings: incubation time: 72 h
Outline: as §2

MDA-MB-453 [8] = experiment: as above; settings: incubation time: 72 h
Outline: as §2

MFM-223 [9] = experiment: as above; settings: incubation time: 72 h
Outline: as §2

BT-549 [10] = experiment: normalised viability (% of control), CellTiter-Blue; higher = more viable cells (100 = DMSO, 0 = benzethonium chloride kill control); settings: incubation time: 72 h
Description: (§3)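 DSRT, CellTiter-Blue viability, 72 h incubation. Signal is normalised to DMSO and benzethonium chloride controls. Value is the normalised response at dose 1.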

CAL-120 = experiment: as above; settings: incubation time: 72 h
Description: as §3

CAL-148 = experiment: as above; settings: incubation time: 72 h
Description: as §3

CAL-51 [11] = experiment: as above; settings: incubation time: 72 h
Description: as §3

CAL-85-1 = experiment: as above; settings: incubation time: 72 h
Description: as §3

DU-4475 [12] = experiment: as above; settings: incubation time: 72 h
Description: as §3

HCC1143 = experiment: as above; settings: incubation time: 72 h
Description: as §3

HCC1599 = experiment: as above; settings: incubation time: 72 h
Description: as §3

HCC1937 [13] = experiment: as above; settings: incubation time: 72 h
Description: as §3

HDQ-P1 = experiment: as above; settings: incubation time: 72 h
Description: as §3

Hs578T = experiment: as above; settings: incubation time: 72 h
Description: as §3

MDA-MB-231 [14] = experiment: as above; settings: incubation time: 72 h
Description: as §3

MDA-MB-436 = experiment: as above; settings: incubation time: 72 h
Description: as §3

MDA-MB-453 [15] = experiment: as above; settings: incubation time: 72 h
Description: as §3

MDA-MB-468 = experiment: as above; settings: incubation time: 72 h
Description: as §3

MFM-223 [16] = experiment: as above; settings: incubation time: 72 h
Description: as §3

SK-BR-3 = experiment: as above; settings: incubation time: 72 h
Description: as §3

DU-4475 [17] = experiment: normalised viability (% of control), CellTiter-Blue; higher = more viable cells (about 100 = DMSO control); settings: 1 nM; incubation time: 72 h
Outline: as §2

BT-474 [18] = experiment: normalised viability (% of control), CellTiter-Blue; higher = more viable cells (100 = DMSO, 0 = benzethonium chloride kill control); settings: 0.1 nM; incubation time: 72 h
Description: as §3

## Nc1cccc2c1CN(C1CCC(=O)NC1=O)C2=O (configuration not stated) [Lenalidomide] (1000 nM)
BT-474 [1]
  normalised response: 97.7%
BT-549 [2]
  normalised response: 97.6%
CAL-51 [3]
  normalised response: 99%
HCC1937 [4]
  normalised response: 100%
MDA-MB-231 [5]
  normalised response: 105%

## C[C@]12O[C@H](C[C@]1(O)CO)n1c3ccccc3c3c4c(c5c6ccccc6n2c5c31)CNC4=O [Lestaurtinib] (100 nM)
BT-474 [1]
  normalised response: 83.6%
BT-549 [2]
  normalised response: 76.1%
CAL-51 [3]
  normalised response: 83.8%
HCC1937 [4]
  normalised response: 91%
MDA-MB-231 [5]
  normalised response: 92.1%

## O=C1c2c(O)ccc(O)c2C(=O)c2c(NCCNCCO)ccc(NCCNCCO)c21 [Mitoxantrone] (100 nM)
BT-474 [1]
  normalised response: 94.3%
BT-549 [2]
  normalised response: 90.1%
CAL-51 [3]
  normalised response: 93.8%
HCC1937 [4]
  normalised response: 97.3%
MDA-MB-231 [5]
  normalised response: 103%

## Nc1ccccc1NC(=O)c1ccc(CNc2nccc(-c3cccnc3)n2)cc1 [Mocetinostat] (1000 nM)
BT-474 [1]
  normalised response: 80.4%
BT-549 [2]
  normalised response: 66%
CAL-51 [3]
  normalised response: 62.9%
HCC1937 [4]
  normalised response: 67.8%
MDA-MB-231 [5]
  normalised response: 77.7%

## COc1nc(N)nc2c1ncn2[C@@H]1O[C@H](CO)[C@@H](O)[C@@H]1O [Nelarabine]
BT-474 [6]; 100 nM
  normalised viability: 87.4% and 96.1%
BT-549 [7]; 100 nM
  normalised viability: 88.7% and 74.2%
MDA-MB-453 [8]; 10 nM
  normalised viability: 97.4% and 102%
MFM-223 [9]; 100 nM
  normalised viability: 103% and 101%
BT-549 [10]; 1 nM
  normalised viability: 92% and 96.5%
CAL-120; 1 nM
  normalised viability: 101% and 102%
CAL-148; 1 nM
  normalised viability: 101% and 110%
CAL-51 [11]; 1 nM
  normalised viability: 102% and 99.3%
CAL-85-1; 1 nM
  normalised viability: 105% and 107%
DU-4475 [12]; 1 nM
  normalised viability: 109% and 118%
HCC1143; 1 nM
  normalised viability: 105% and 98.5%
HCC1599; 1 nM
  normalised viability: 121% and 119%
HCC1937 [13]; 1 nM
  normalised viability: 94.7% and 81.3%
HDQ-P1; 1 nM
  normalised viability: 77.2% and 91.2%
Hs578T; 1 nM
  normalised viability: 99.1% and 107%
MDA-MB-231 [14]; 1 nM
  normalised viability: 93.7% and 78.7%
MDA-MB-436; 1 nM
  normalised viability: 98.1% and 89.7%
MDA-MB-453 [15]; 1 nM
  normalised viability: 101% and 80.4%
MDA-MB-468; 1 nM
  normalised viability: 103% and 92.2%
MFM-223 [16]; 1 nM
  normalised viability: 97.6% and 107%
SK-BR-3; 1 nM
  normalised viability: 90% and 95.9%

## COc1nc(N)nc2c1ncn2[C@@H]1O[C@H](CO)[C@@H](O)[C@@H]1O [Nelarabine] (1000 nM)
BT-474 [1]
  normalised response: 83.7%
BT-549 [2]
  normalised response: 94.1%
CAL-51 [3]
  normalised response: 88.7%
HCC1937 [4]
  normalised response: 96.2%
MDA-MB-231 [5]
  normalised response: 93.9%

## Cc1ccc(Nc2nccc(N(C)c3ccc4c(C)n(C)nc4c3)n2)cc1S(N)(=O)=O [Pazopanib] (1000 nM)
BT-474 [1]
  normalised response: 93.9%
BT-549 [2]
  normalised response: 98.4%
CAL-51 [3]
  normalised response: 104%
HCC1937 [4]
  normalised response: 94.5%
MDA-MB-231 [5]
  normalised response: 106%

## O=C(CCBr)N1CCN(C(=O)CCBr)CC1 [Pipobroman] (1000 nM)
BT-474 [1]
  normalised response: 93.9%
BT-549 [2]
  normalised response: 102%
CAL-51 [3]
  normalised response: 88.8%
HCC1937 [4]
  normalised response: 103%
MDA-MB-231 [5]
  normalised response: 99.5%

## C[C@]12C=CC(=O)C=C1CC[C@@H]1[C@@H]2[C@@H](O)C[C@@]2(C)[C@H]1CC[C@]2(O)C(=O)CO [Prednisolone] (1000 nM)
BT-474 [1]
  normalised response: 158%
BT-549 [2]
  normalised response: 102%
CAL-51 [3]
  normalised response: 120%
HCC1937 [4]
  normalised response: 97.6%
MDA-MB-231 [5]
  normalised response: 154%

## CNC(=O)c1cc(Oc2ccc(NC(=O)Nc3ccc(Cl)c(C(F)(F)F)c3)cc2)ccn1 [Sorafenib]
BT-474 [6]; 10 nM
  normalised viability: 114% and 99.3%
DU-4475 [17]
  normalised viability: 118% and 131%
MDA-MB-453 [8]; 1 nM
  normalised viability: 103% and 109%
MFM-223 [9]; 10 nM
  normalised viability: 94.7% and 95%
BT-474 [18]
  normalised viability: 109% and 85.3%
BT-549 [10]; 0.1 nM
  normalised viability: 119% and 96%
CAL-120; 0.1 nM
  normalised viability: 97.8% and 95.4%
CAL-148; 0.1 nM
  normalised viability: 112% and 109%
CAL-51 [11]; 0.1 nM
  normalised viability: 111% and 95.4%
CAL-85-1; 0.1 nM
  normalised viability: 104% and 103%
DU-4475 [12]; 0.1 nM
  normalised viability: 96.9% and 115%
HCC1143; 0.1 nM
  normalised viability: 109% and 96%
HCC1599; 0.1 nM
  normalised viability: 106% and 123%
HCC1937 [13]; 0.1 nM
  normalised viability: 101% and 85.2%
Hs578T; 0.1 nM
  normalised viability: 113% and 99%
MDA-MB-231 [14]; 0.1 nM
  normalised viability: 92.8% and 93.4%
MDA-MB-436; 0.1 nM
  normalised viability: 88% and 95.8%
MDA-MB-453 [15]; 0.1 nM
  normalised viability: 109% and 102%
MFM-223 [16]; 0.1 nM
  normalised viability: 102% and 105%
SK-BR-3; 0.1 nM
  normalised viability: 103% and 90.7%

## CNC(=O)c1cc(Oc2ccc(NC(=O)Nc3ccc(Cl)c(C(F)(F)F)c3)cc2)ccn1 [Sorafenib] (100 nM)
BT-474 [1]
  normalised response: 101%
BT-549 [2]
  normalised response: 106%
CAL-51 [3]
  normalised response: 83.9%
HCC1937 [4]
  normalised response: 104%
MDA-MB-231 [5]
  normalised response: 104%

## CCN(CC)CCNC(=O)c1c(C)[nH]c(/C=C2\C(=O)Nc3ccc(F)cc32)c1C [Sunitinib]
BT-474 [6]; 10 nM
  normalised viability: 102% and 99.1%
BT-549 [7]; 10 nM
  normalised viability: 96.5% and 73.3%
DU-4475 [17]
  normalised viability: 104% and 92%
MDA-MB-453 [8]; 1 nM
  normalised viability: 89.4% and 98.1%
MFM-223 [9]; 10 nM
  normalised viability: 93.5% and 87.9%
BT-474 [18]
  normalised viability: 81% and 89.3%
BT-549 [10]; 0.1 nM
  normalised viability: 87.1% and 85%
CAL-148; 0.1 nM
  normalised viability: 104% and 107%
CAL-51 [11]; 0.1 nM
  normalised viability: 111% and 96%
CAL-85-1; 0.1 nM
  normalised viability: 89.3% and 104%
DU-4475 [12]; 0.1 nM
  normalised viability: 101% and 89.2%
HCC1599; 0.1 nM
  normalised viability: 112% and 101%
HCC1937 [13]; 0.1 nM
  normalised viability: 91.7% and 88.2%
HDQ-P1; 0.1 nM
  normalised viability: 100% and 93.2%
Hs578T; 0.1 nM
  normalised viability: 104% and 115%
MDA-MB-231 [14]; 0.1 nM
  normalised viability: 82.2% and 85.6%
MDA-MB-436; 0.1 nM
  normalised viability: 98.4% and 105%
MDA-MB-453 [15]; 0.1 nM
  normalised viability: 99.7% and 100%
MDA-MB-468; 0.1 nM
  normalised viability: 94.7% and 98.5%
MFM-223 [16]; 0.1 nM
  normalised viability: 99.6% and 109%
SK-BR-3; 0.1 nM
  normalised viability: 94.2% and 93.7%

## CCN(CC)CCNC(=O)c1c(C)[nH]c(/C=C2\C(=O)Nc3ccc(F)cc32)c1C [Sunitinib] (100 nM)
BT-474 [1]
  normalised response: 107%
BT-549 [2]
  normalised response: 107%
CAL-51 [3]
  normalised response: 88.4%
HCC1937 [4]
  normalised response: 99.4%
MDA-MB-231 [5]
  normalised response: 109%

## CC[C@@]1(O)C(=O)OCc2c1cc1n(c2=O)Cc2cc3c(CN(C)C)c(O)ccc3nc2-1 [Topotecan] (1000 nM)
BT-474 [1]
  normalised response: 81.8%
BT-549 [2]
  normalised response: 51.5%
CAL-51 [3]
  normalised response: 48%
HCC1937 [4]
  normalised response: 79.3%
MDA-MB-231 [5]
  normalised response: 81.6%
